# Measured values: patent US20090209571A1, “Phenanthrene derivatives as MPGES-1 inhibitors” (priority 2006, published 2009)
# Biological target: T1, human mPGES-1 (Homo sapiens, UniProt O14684)
# T1 construct: expressed in transfected cells; host or cells: CHO-K1 cells, transiently transfected; microsomal fraction used
# T1 sequence (O14684 1-152): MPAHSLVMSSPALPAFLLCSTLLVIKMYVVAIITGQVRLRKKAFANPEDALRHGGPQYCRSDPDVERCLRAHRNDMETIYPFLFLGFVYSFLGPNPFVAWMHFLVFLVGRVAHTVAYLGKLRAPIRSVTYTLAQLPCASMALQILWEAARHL
# Assay: Microsomal Prostaglandin E Synthase Assay
# Type: biochemical
# Details: microsomal fractions from CHO-K1 cells transiently transfected with human mPGES-1 cDNA; 1 μM PGH2; PGE2 by EIA; average of at least n=3; read-out: h-CHO (nM), potency expressed as IC50
# Description: Compounds are tested as inhibitors of prostaglandin E synthase activity in microsomal prostaglandin e synthases, whole cell and in vivo assays. These assays measure prostaglandin E2 (PGE2) synthesis using either Enzymatic Immunoassay (EIA) or mass spectrometry. Cells used for microsomal preparation are CHO-K1 cells transiently transfected with plasmids encoding the human mPGES-1 cDNA. Cells used for cell-based experiments are human A549 (which express human mPGES-1). Guinea pigs are used to test the activity of selected compounds in vivo. In all these assays, 100% activity is defined as the PGE2 production in vehicle-treated samples. IC50 and ED50 represent the concentration or dose of inhibitor required to inhibit PGE2 synthesis by 50% as compared to the uninhibited control.
# Prostaglandin E synthase microsomal fractions are prepared from CHO-K1 cells transiently transfected with plasmid encoding the human mPGES-1 cDNA. Microsomes are then prepared and the PGES assay begins with the incubation of 5 μg/ml microsomal PGES-1 with compound or DMSO (final 1%) for 20-30 minutes at room temperature. The enzyme reactions are performed in 200 mM KPi pH 7.0, 2 mM EDTA and 2.5 mM GSH-reduced form. The enzymatic reaction is then initiated by the addition of 1 μM final PGH2 substrate prepared in isopropanol (3.5% final in assay well) and incubated at room temperature for 30 seconds. The reaction is terminated by the addition of SnCl2 in 1N HCl (1 mg/ml final). Measurement of PGE2 production in the enzyme reaction aliquots is done by EIA using a standard commercially available kit (Cat #: 901-001 from Assay Designs).
# The potency is expressed as IC50 and the value indicated is an average of at least n=3.
row,IC50 [nM],SMILES
1,1.5,CC(C)(O)C#Cc1ccc2c(c1)c1c(Cl)c(Cl)sc1c1[nH]c(-c3c(C#N)cccc3C#N)nc21 [Example 28]
2,10.5,Fc1cccc(Cl)c1-c1nc2c3ccccc3c3sc(Cl)cc3c2[nH]1 [Example 2]
3,1.8,Fc1cccc(Cl)c1-c1nc2c3ccc(Cl)cc3c3cc(Br)sc3c2[nH]1 [Example 15]
4,3.2,N#Cc1cccc(C#N)c1-c1nc2c3ccc(Cl)cc3c3ccoc3c2[nH]1 [Example 12]
